Marks after values point to notes of the source that are not given here.

Assay [1] concerns QH-WSN virus (avian influenza virus H5N1). The settings on record: for Inhibitory rates (%) of QH-WSN: QH-WSN virus (avian influenza virus, 200 μM); for IC50: QH-WSN virus (avian influenza virus).
For assay [2], the system named is WSN virus (human influenza virus H1N1). The conditions noted are these: for Inhibitory rates (%) of WSN: WSN virus (human influenza virus, 100 μM); for IC50: WSN virus (human influenza virus).
The test system of assay [3] is JX virus (human influenza virus H3N2). The conditions noted are these: for Inhibitory rates (%) of JX: JX virus (human influenza virus, 200 μM); for IC50: JX virus (human influenza virus).
For a further assay, the system named is influenza virus. Type of assay: cell-based.
The test system of assay [4] is 3 subtypes of virus i.e. H5N1, H6N1 and H9N2. The settings on record: read-out: 50% effect concentration (EC50); cited from earlier work.

For the compound `CC(C)C[C@H](NC(=O)[C@H](CCCNC(=N)N)NC(=O)[C@@H](NC(=O)[C@H](CCCCN)NC(=O)[C@H](CC(=O)O)NC(=O)[C@H](Cc1ccc(O)cc1)NC(=O)[C@H](CC(C)C)NC(=O)[C@H](CC(N)=O)NC(=O)[C@H](CCCCN)NC(=O)[C@@H](NC(=O)[C@H](CC(N)=O)NC(=O)[C@H](CO)NC(=O)[C@H](CC(=O)O)NC(=O)[C@H](Cc1c[nH]cn1)NC(=O)[C@@H](N)Cc1ccccc1)C(C)C)C(C)C)C(=O)N[C@@H](CCC(N)=O)C(=O)O` [HR2C], the “Inhibitory rates (%) of QH-WSN” value in assay [1] is recorded as 53.1* %. Besides, the “Inhibitory rates (%) of WSN” value in assay [2] is recorded as 29.6** %. Besides, the “Inhibitory rates (%) of JX” value in assay [3] is recorded as 17.1* %.
For KLPDDFMGCV, the “inhibition of the infection of influenza virus” value in the assay on influenza virus is on record as “did not inhibit the infection of influenza virus”.
As to `CSCC[C@H](NC(=O)[C@H](CC(C)C)NC(=O)[C@@H](NC(=O)[C@H](CC(C)C)NC(=O)[C@H](CC(C)C)NC(=O)[C@H](CCC(=O)O)NC(=O)[C@H](C)NC(=O)[C@@H](N)CC(N)=O)C(C)C)C(=O)N[C@@H](CCC(=O)O)C(=O)N[C@@H](CC(N)=O)C(=O)N[C@@H](CCC(=O)O)C(=O)N[C@@H](CCCNC(=N)N)C(=O)N[C@H](C(=O)N[C@@H](CC(C)C)C(=O)N[C@@H](CC(=O)O)C(=O)N[C@@H](Cc1ccccc1)C(=O)N[C@@H](Cc1c[nH]cn1)C(=O)N[C@@H](CC(=O)O)C(=O)N[C@@H](CO)C(=O)N[C@@H](CC(N)=O)C(=O)N[C@H](C(=O)N[C@@H](CCCCN)C(=O)N[C@@H](CC(N)=O)C(=O)O)C(C)C)[C@@H](C)O` [HR2B], the “Inhibitory rates (%) of QH-WSN” value in assay [1] is listed as 63.8* %. Also, the “Inhibitory rates (%) of WSN” value in assay [2] is on record as 43.0** %. Moreover, the “Inhibitory rates (%) of JX” value in assay [3] is given as 15.2* %.
One may read the IC50 as the concentration at which inhibition is half-maximal. As to `CC[C@H](C)[C@H](NC(=O)[C@H](C)NC(=O)[C@H](CCCCN)NC(=O)[C@H](CCC(N)=O)NC(=O)[C@@H](NC(=O)[C@H](CO)NC(=O)[C@H](CCC(=O)O)NC(=O)[C@@H](N)CCCCN)[C@@H](C)O)C(=O)N[C@@H](CC(=O)O)C(=O)NCC(=O)N[C@H](C(=O)N[C@H](C(=O)N[C@@H](C)C(=O)N[C@@H](C)C(=O)N[C@@H](C)C(=O)N[C@@H](C)C(=O)N[C@@H](CC(N)=O)C(=O)N[C@@H](CCCCN)C(=O)N[C@H](C(=O)N[C@@H](CC(N)=O)C(=O)N[C@@H](CO)C(=O)N[C@H](C(=O)N[C@H](C(=O)N[C@@H](CC(=O)O)C(=O)N[C@@H](CCCCN)C(=O)O)[C@@H](C)CC)[C@@H](C)CC)C(C)C)[C@@H](C)O)C(C)C` [HR1-2], the values for the IC50 in assay [1], in assay [2] and in assay [3] were 104 ± 28.6 µM, 110 ± 28.2 µM and 112 ± 19.5 µM, respectively.
Take `CC[C@H](C)[C@H](NC(=O)[C@H](CCCNC(=N)N)NC(=O)[C@@H](N)CCCNC(=N)N)C(=O)N[C@@H](CCC(=O)O)C(=O)N[C@@H](CC(N)=O)C(=O)N[C@@H](CC(C)C)C(=O)N[C@@H](CC(N)=O)C(=O)N[C@@H](CCCCN)C(=O)N[C@@H](CCCCN)C(=O)N[C@@H](CCSC)C(=O)N[C@@H](CCC(=O)O)C(=O)N[C@@H](CC(=O)O)C(=O)NCC(=O)N[C@@H](Cc1ccccc1)C(=O)N[C@@H](CC(C)C)C(=O)N[C@@H](CC(=O)O)C(=O)N[C@H](C(=O)N[C@@H](Cc1c[nH]c2ccccc12)C(=O)N[C@H](C(=O)N[C@@H](Cc1ccc(O)cc1)C(=O)O)[C@@H](C)O)C(C)C` [HR2A]: the “Inhibitory rates (%) of QH-WSN” value in assay [1] is recorded as 56.9* %. Moreover, in assay [2], the “Inhibitory rates (%) of WSN” value is given as 42.0** %. The “Inhibitory rates (%) of JX” value in assay [3] is reported as 51.4* %.
On to `CC(=O)N[C@H]1[C@H]([C@H](O)[C@H](O)CO)OC(C(=O)O)=C[C@@H]1N=C(N)N` [Zanamivir], for which the EC50 in assay [4] was 8.5 to 14 µM.
With `CC[C@H](C)[C@H](NC(=O)[C@H](CCCCN)NC(=O)[C@H](CCC(N)=O)NC(=O)[C@@H](NC(=O)[C@H](CO)NC(=O)[C@H](CCC(=O)O)NC(=O)[C@@H](N)CCCCN)[C@@H](C)O)C(=O)N[C@H](C(=O)N[C@@H](CC(=O)O)C(=O)NCC(=O)N[C@H](C(=O)N[C@H](C(=O)N[C@@H](CC(N)=O)C(=O)N[C@@H](CCCCN)C(=O)N[C@H](C(=O)N[C@@H](CC(N)=O)C(=O)N[C@@H](CO)C(=O)N[C@H](C(=O)N[C@H](C(=O)N[C@@H](CC(=O)O)C(=O)N[C@@H](CCCCN)C(=O)O)[C@@H](C)CC)[C@@H](C)CC)C(C)C)[C@@H](C)O)C(C)C)[C@@H](C)CC` [HR1-1], the IC50 was 32.7 ± 6.5 µM in assay [1], 29.3 ± 5.7 µM in assay [2] and 38.2 ± 7.8 µM in assay [3].
